The values that follow come from patent US9388123B2, “LSD1-selective inhibitor having lysine structure” (KYOTO UNIVERSITY, priority 2012, dated 2016).

One series addresses T1, LSD1 (Homo sapiens, UniProt O60341).
T1 construct: five histidine residues added to the N-terminus of full-length LSD1 (1-851aa); 5xHis (five histidine residues) (N); made in house; host or cells: Escherichia coli
The series can be described thus: LSD1 inhibition test (peroxidase-coupled absorbance assay). Type of series: biochemical. To be noted: 25° C., 30 minutes, histone H3-lysine 4 dimethyl peptide.

The test system of a further series is HeLa cells. Nature of the series: Cancer cell growth inhibition evaluation (MTT assay). It is filed as cell-based. The note with it: Homo sapiens, read-out: GI50 (μM) HeLa. Here is the method:
(§1) Evaluation was performed by measuring the inhibitory activities of a compound against the growth of a human cervical cancer-derived cell line, HeLa cells, and a human neuroblastoma cell line, SH-SY5Y cells. Details thereof are shown below. […] This assay involves, as a principle thereof, measuring an absorbance at the time of color development through a reaction of NADH, which is contained in the mitochondria of viable cells, and MTT to measure the amount of NADH. The assay was performed by the following procedure. […] After the culture, a compound was added. Then, the cells were cultured for an additional 48 hours, and then 5 mg/ml MTT liquid was added at 10 μl per well. The cells were cultured for an additional 3 hours in a CO2 incubator. A solubilization solution (0.04 mol/l hydrochloric acid-isopropanol) was added at 100 μl per well and the mixture was vigorously vortexed. After that, an absorbance at 560 nm was measured with Fusion-aFP (manufactured by PerkinElmer) and the amount of viable cells was determined.
For orientation: Tetrazolium dyes change colour on reduction, which living cells bring about.

The test system of a further series is SH-SY5Y cells. Described as above. Type of series: cell-based. The note with it: Homo sapiens, read-out: GI50 (μM) SH-SY5Y. Here is the method: as §1
Series [1] has as its target T2, monoamine oxidase A (MAO-A) (Homo sapiens, UniProt P21397).
T2 construct: purchased Sigma-Aldrich
T2 sequence (P21397 1-527): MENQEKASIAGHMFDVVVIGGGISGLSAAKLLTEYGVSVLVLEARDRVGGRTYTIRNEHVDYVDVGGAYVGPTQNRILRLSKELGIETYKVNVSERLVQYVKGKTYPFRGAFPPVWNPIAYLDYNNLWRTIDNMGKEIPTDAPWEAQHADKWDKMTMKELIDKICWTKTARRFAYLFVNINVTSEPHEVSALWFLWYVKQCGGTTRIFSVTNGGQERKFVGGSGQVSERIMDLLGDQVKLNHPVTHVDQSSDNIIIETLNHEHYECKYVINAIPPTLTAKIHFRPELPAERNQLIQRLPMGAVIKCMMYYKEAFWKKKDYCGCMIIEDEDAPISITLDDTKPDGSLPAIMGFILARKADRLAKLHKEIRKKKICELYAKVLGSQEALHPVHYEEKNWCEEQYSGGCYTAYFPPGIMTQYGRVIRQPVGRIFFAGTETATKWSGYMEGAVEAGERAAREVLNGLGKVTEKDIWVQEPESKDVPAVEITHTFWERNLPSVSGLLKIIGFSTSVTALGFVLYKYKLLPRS
Nature of the series: Monoamine oxidase inhibition test (MAO-Glo assay kit). Type of series: biochemical. To be noted: room temperature, 1 hour.
Protocol: (§2) To the reaction liquid was added 50 μL of a luciferin detection reagent, and the mixture was subjected to a reaction at room temperature for 20 minutes.

The target in series [2] is T3, monoamine oxidase B (MAO-B) (Homo sapiens, UniProt P27338).
T3 construct: purchased Sigma-Aldrich
T3 sequence (P27338 1-520): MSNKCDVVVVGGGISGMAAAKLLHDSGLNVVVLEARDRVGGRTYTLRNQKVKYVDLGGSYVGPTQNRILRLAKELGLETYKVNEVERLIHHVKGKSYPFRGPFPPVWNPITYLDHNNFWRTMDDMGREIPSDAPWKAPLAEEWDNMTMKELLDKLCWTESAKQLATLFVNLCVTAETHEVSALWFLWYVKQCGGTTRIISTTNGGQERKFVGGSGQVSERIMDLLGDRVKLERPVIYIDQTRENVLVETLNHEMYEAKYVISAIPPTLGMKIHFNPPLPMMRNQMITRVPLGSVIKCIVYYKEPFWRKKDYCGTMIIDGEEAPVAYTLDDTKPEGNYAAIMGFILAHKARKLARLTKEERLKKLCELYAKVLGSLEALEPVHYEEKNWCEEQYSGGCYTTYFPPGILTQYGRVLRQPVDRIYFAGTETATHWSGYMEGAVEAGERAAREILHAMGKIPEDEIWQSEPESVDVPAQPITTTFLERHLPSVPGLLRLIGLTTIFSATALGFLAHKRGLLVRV
Described as above. It is filed as biochemical. To be noted: room temperature, 1 hour.
Protocol: as §2

Structures can show the parent of a compound that is named as a salt. Where two headings read alike, the source gives them in different places.

The melting point is the temperature of the solid-liquid transition. The molecule `CC(C)(C)c1ccc(C(=O)N[C@@H](CCCCNC2CC2c2ccccc2)C(=O)NCc2ccccc2)cc1` (stereo partly drawn) (as salt: hydrochloride) [Example 5, 2-[N-(4-tert-Butylbenzenecarbonyl)]amino-6-(trans-2-phenylcyclopropan-1-amino)-N-benzylhexanamide Hydrochloride] yielded a melting point of 101 to 103 °C. Same read-out and setting: the value for `O=C(N[C@@H](CCCCNC1CC1c1ccccc1)C(=O)NCc1ccccc1)c1ccc(Cl)cc1` (stereo partly drawn) (as salt: hydrochloride) [Example 6, 2-[N-(4-Chlorobenzenecarbonyl)]amino-6-(trans-2-phenylcyclopropan-1-amino)-N-benzylhexanamide Hydrochloride] was 107 to 109 °C; that for `O=C(N[C@@H](CCCCNC1CC1c1ccccc1)C(=O)NCc1ccccc1)c1ccc(F)cc1` (stereo partly drawn) (as salt: hydrochloride) [Example 7, 2-[N-(4-Fluorobenzenecarbonyl)]amino-6-(trans-2-phenylcyclopropan-1-amino)-N-benzylhexanamide Hydrochloride] was 90 to 91 °C; that for `O=C(N[C@@H](CCCCNC1CC1c1ccccc1)C(=O)NCc1ccccc1)c1ccc(-c2ccccc2)cc1` (stereo partly drawn) (as salt: hydrochloride) [Example 8, 2-[N-(4-Phenylbenzenecarbonyl)]amino-6-(trans-2-phenylcyclopropan-1-amino)-N-benzylhexanamide Hydrochloride] was 143 to 146 °C.

Consider `O=C(N[C@@H](CCCCNC1CC1c1ccccc1)C(=O)NCc1ccccc1)c1ccc(C(F)(F)F)cc1` (stereo partly drawn) (as salt: hydrochloride) [Example 9, 2-[N-(4-Trifluoromethylbenzenecarbonyl)]amino-6-(trans-2-phenylcyclopropan-1-amino)-N-benzylhexanamide Hydrochloride], for which the melting point was 98 to 101 °C.

Regarding `Cc1ccc(CNC(=O)[C@H](CCCCNC2CC2c2ccccc2)NC(=O)c2ccc(-c3ccccc3)cc2)cc1` (stereo partly drawn) (as salt: hydrochloride) [Example 12, 2-[N-(4-Phenylbenzenecarbonyl)]amino-6-(trans-2-phenylcyclopropan-1-amino)-N-(4-methylbenzyl)hexanamide Hydrochloride], the melting point was 117 to 118 °C. Still for that read-out and setting: the result for `O=C(N[C@@H](CCCCNC1CC1c1ccccc1)C(=O)NCc1ccc(F)cc1)c1ccc(-c2ccccc2)cc1` (stereo partly drawn) (as salt: hydrochloride) [Example 13, 2-[N-(4-Phenylbenzenecarbonyl)]amino-6-(trans-2-phenylcyclopropan-1-amino)-N-(4-fluorobenzyl)hexanamide Hydrochloride] reads 95 to 96 °C. Still for that read-out and setting: the value for `O=C(N[C@@H](CCCCNC1CC1c1ccccc1)C(=O)NCc1ccc(-c2ccccc2)cc1)c1ccc(-c2ccccc2)cc1` (stereo partly drawn) (as salt: hydrochloride) [Example 14, 2-[N-(4-Phenylbenzenecarbonyl)]amino-6-(trans-2-phenylcyclopropan-1-amino)-N-(4-phenylbenzyl)hexanamide Hydrochloride] was 139 to 140 °C; that for `Cc1cccc(CNC(=O)[C@H](CCCCNC2CC2c2ccccc2)NC(=O)c2ccc(-c3ccccc3)cc2)c1` (stereo partly drawn) (as salt: hydrochloride) [Example 16, 2-[N-(4-Phenylbenzenecarbonyl)]amino-6-(trans-2-phenylcyclopropan-1-amino)-N-(3-methylbenzyl)hexanamide Hydrochloride] was 101 to 103 °C; that for `O=C(N[C@@H](CCCCNC1CC1c1ccccc1)C(=O)NCc1cccc(C(F)(F)F)c1)c1ccc(-c2ccccc2)cc1` (stereo partly drawn) (as salt: hydrochloride) [Example 19, 2-[N-(4-Phenylbenzenecarbonyl)]amino-6-(trans-2-phenylcyclopropan-1-amino)-N-(3-trifluoromethylbenzyl)hexanamide Hydrochloride] was 129 to 130 °C. Usually IC50 stands for the midpoint of a concentration-inhibition curve. Read a high IC50 as weaker potency. For orientation: GI50 means the concentration giving 50% growth inhibition. The molecule `O=C(N[C@@H](CCCCNC1CC1c1ccccc1)C(=O)NCc1ccc(-c2ccccc2)cc1)c1ccc(-c2ccccc2)cc1` (stereo partly drawn) [Example 14, 2-[N-(4-Phenylbenzenecarbonyl)]amino-6-(trans-2-phenylcyclopropan-1-amino)-N-(4-phenylbenzyl)hexanamide Hydrochloride] registered an IC50 at LSD1 of 2.7 µM. For the same molecule, the 50% growth inhibitory concentration (GI50) was 5.2 µM in the series with HeLa cells (48 hours with compound, MTT) and 6.4 µM in the series on SH-SY5Y cells (MTT). For `CC(C)(C)c1ccc(CNC(=O)[C@H](CCCCNC2CC2c2ccccc2)NC(=O)c2ccc(-c3ccccc3)cc2)cc1` (stereo partly drawn) [Example 15, 2-[N-(4-Phenylbenzenecarbonyl)]amino-6-(trans-2-phenylcyclopropan-1-amino)-N-(4-tert-butylbenzyl)hexanamide Trifluoroacetate] the same measures were 1.2 µM, 4 µM and 2.7 µM. For `Cc1cccc(CNC(=O)[C@H](CCCCNC2CC2c2ccccc2)NC(=O)c2ccc(-c3ccccc3)cc2)c1` (stereo partly drawn) [Example 16, 2-[N-(4-Phenylbenzenecarbonyl)]amino-6-(trans-2-phenylcyclopropan-1-amino)-N-(3-methylbenzyl)hexanamide Hydrochloride] the same measures were 0.68 µM, 4.2 µM and 2.3 µM. For `O=C(N[C@@H](CCCCNC1CC1c1ccccc1)C(=O)NCc1cccc(F)c1)c1ccc(-c2ccccc2)cc1` (stereo partly drawn) [Example 17, 2-[N-(4-Phenylbenzenecarbonyl)]amino-6-(trans-2-phenylcyclopropan-1-amino)-N-(3-fluorobenzyl)hexanamide Hydrochloride] the same measures were 0.67 µM, 10.9 µM and 4.1 µM. In turn, `O=C(N[C@@H](CCCCNC1CC1c1ccccc1)C(=O)NCc1cccc(-c2ccccc2)c1)c1ccc(-c2ccccc2)cc1` (stereo partly drawn) [Example 18, 2-[N-(4-Phenylbenzenecarbonyl)]amino-6-(trans-2-phenylcyclopropan-1-amino)-N-(3-phenylbenzyl)hexanamide Hydrochloride] displayed an IC50 at LSD1 of 0.98 µM. Besides, the GI50 was determined as 9.7 µM with HeLa cells (48 hours with compound, MTT) and 3.8 µM in the series on SH-SY5Y cells (MTT). For the molecule `O=C(N[C@@H](CCCCNC1CC1c1ccccc1)C(=O)NCc1ccc(Cl)cc1)c1ccc(-c2ccccc2)cc1` (stereo partly drawn) [Example 20, 2-[N-(4-Phenylbenzenecarbonyl)]amino-6-(trans-2-phenylcyclopropan-1-amino)-N-(4-chlorobenzyl)hexanamide Hydrochloride], the IC50 in series [1] and in series [2] was above 100 µM in each case. Moreover, the GI50 with HeLa cells (48 h) was 4 µM; in the series on SH-SY5Y cells it was 1.4 µM.
